{
  "source": "patent US20160346406A1",
  "about": "“METHOD FOR INCREASING THE INTRAOCULAR PRESSURE IN AN ANIMAL” (INSTITUT NATIONAL DE LA SANTE ET DE LA RECHERCHE MEDICALE …, priority 2011, published 2016)",
  "key": {"Long-Evans rats [1]": {"test_system": "Long-Evans rats", "assay": "In vivo outflow facility measurement", "parameters": "species or system rat", "settings": "six days after second injection of 0.1% BAK; infusion 0.1, 0.2, 0.3 μL/min; vs vehicle-injected control eyes", "procedure": "Six days after the second injection of BAK, trabecular outflow facility was measured in vivo under general anaesthesia. The eyes were anteriorly canulated with a 30-G needle connected by tubing to a 1 mL syringe filled with PBS and loaded into a microdialysis infusion pump. Intraocular pressure was measured after a 10-min stabilization period for three different infusion flow rates (0.1, 0.2, and 0.3 μL/min). Aqueous humor outflow facility was calculated as the reciprocal of the slope of the respective ocular pressure/flow rate curves. Outflow facility (OF) was decreased in BAK-injected eyes as compared to vehicle-injected control eyes.\nSix days after the second injection of BAK, trabecular outflow facility was measured in vivo under general anaesthesia (intraperitoneal injection of ketamine 75 mg/kg and xylazine 10 mg/kg). Briefly, the eyes were anteriorly canulated with a 30-G needle connected by tubing to a 1 mL syringe filled with PBS and loaded into a microdialysis infusion pump (World Precision instruments). Intraocular pressure was measured after a 10-min stabilization period for three different infusion flow rates (0.1, 0.2, and 0.3 μL/min). Aqueous humor outflow facility (μL/min/mmHg) was calculated as the reciprocal of the slope of the respective ocular pressure/flow rate curves."}, "Long-Evans rats [2]": {"test_system": "Long-Evans rats", "assay": "Intra-ocular pressure monitoring after two subconjunctival injections of 0.1% BAK", "format": "in vivo, rat", "procedure": "Six male 8-week-old Long-Evans rats weighing 300-350 g were used. At D0, first subconjunctival injection of 0.1% BAK (100 μL) was performed in the right eye whereas the left eye received 0.9% NaCl vehicle only as control. A second injection was performed seven days after following the same protocol. Animals were daily monitored for intra-ocular pressure using a handheld tonometer, without sedation.\nSix male 8-week-old Long-Evans rats weighing 300-350 g were used. Animals were kept in pathogen-free conditions with food and water available ad libitum and housed in a 12-h light/12-h dark cycle. Ocular integrity was checked using the slit lamp biomicroscope. At D0, first subconjunctival injection of 0.1% BAK (100 μL) was performed in the right eye whereas the left eye received PBS only as control. A second injection was performed seven days after following the same protocol. Animals were daily monitored for intra-ocular pressure using a handheld tonometer (TonoLab, Medtronics, Jacksonville, Fla., USA) without sedation. All experiments were conducted in accordance with the Association for Research in Vision and Ophthalmology for the Use of Animals in Ophthalmic research."}, "[3]": {"assay": "Dose-dependent effects of subconjunctival injections of BAK on intraocular pressure", "format": "in vivo", "settings": "3 subconjunctival injections (0.15 mL, each 48 h)", "procedure": "A series of 3 subconjunctival injections with 0.01% BAK (n=3), 0.05% BAK (n=3), 0.1%, BAK (n=6) or the vehicle (n=4) was performed (0.15 mL, each 48 h during 6 days) in the right eye of animals. Intraocular pressure was measured using a handled tonometer every two days from D0 to D28. Intraocular pressure is expressed as the difference between the treated eye (right) and the left control eye."}, "trabecular cells": {"test_system": "trabecular cells", "assay": "Ex vivo trabecular cell apoptosis (TUNEL labelling)", "format": "in vivo, rat", "settings": "BAK-injected eyes vs controls, end of experiments; P<0.01", "procedure": "At the end of the experiments, animals were euthanized and the eyes were immediately conditioned for TUNEL labelling. Eyes were fixed in 4% paraformaldehyde, embedded in an optimal cutting-temperature compound (OCT, Tissue-Tek, Miles Inc, Bayer Diagnostic, Puteaux, France) and cut into 15-μm cryosections. A terminal deoxynucleotidyl transferase-mediated dUTP nick-end labelling (TUNEL) assay (Roche Diagnostics, Meylan, France) was performed to detect apoptosis in rat ocular tissues following the manufacturer's instructions. Specimens were mounted in aqueous mounting medium with DAPI to be further analyzed using light epifluorescence microscopy."}, "ocular surface": {"test_system": "ocular surface", "assay": "In vivo assessment of BAK injection toxicity to the ocular surface (in vivo confocal microscopy, IVCM)", "procedure": "In vivo confocal microscopy (IVCM) using the Heidelberg Retina Tomograph II/Rostock Cornea Module (Heidelberg Engineering GmbH, Heidelberg, Germany) laser-scanning was carried out to assess putative damage to the ocular surface. Images size was 400 per 400 hundred pixels with a lateral resolution of 1 micrometer and an axial resolution of 2 micrometers. […] IVCM scores were used to evaluate ocular surface toxicity profiles in the 4 groups (vehicle, 0.01% BAK, 0.05% BAK, and 0.1% BAK) in different histological regions (superficial epithelium, basal epithelium, anterior stroma, limb and conjunctival stroma), 30 days after the first BAK administration (see Table 1). […] [table]"}},
  "note": "“Also recorded” adds a separate entry of the source.",
  "data": [
    {"substance": "benzalkonium chloride [BAK]", "values": [
      {"measurement": "trabecular (aqueous humor) outflow facility", "setting": "Long-Evans rats [1]", "value": "decreased; also recorded: low trabecular outflow facility"},
      {"measurement": "intra-ocular pressure after second injection", "setting": "Long-Evans rats [2]; 0.1% BAK (100 μL) subconjunctival at D0 and seven days after, vs control eyes, D9 and D14, P<0.01", "value": "significantly rose and remained significantly elevated; also recorded: Significant difference; also recorded: became significant"},
      {"measurement": "intra-ocular pressure after first injection", "setting": "Long-Evans rats [2]; 0.1% BAK (100 μL) subconjunctival, right eye, vs vehicle control eye, D7", "value": "no effect; also recorded: slight increase"},
      {"measurement": "intraocular pressure, difference between treated eye and left control eye", "setting": "[3]; 0.05% BAK, D9", "value": "significant ocular hypertension"},
      {"measurement": "intraocular pressure, difference between treated eye and left control eye", "setting": "[3]; 0.1% BAK, D7, D11 and D14", "value": "significant increase"},
      {"measurement": "intraocular pressure, difference between treated eye and left control eye", "setting": "[3]; other times or BAK concentrations (0.01% BAK), D0 to D28", "value": "did not show significant changes"},
      {"measurement": "trabecular apoptotic cells (TUNEL labelling)", "setting": "trabecular cells", "value": "Significant difference; also recorded: increased"},
      {"measurement": "IVCM subscore: limbus and conjunctiva, animals with peripheral vasodilatation", "setting": "ocular surface; 0.01% BAK (n=3)", "value": "one"},
      {"measurement": "IVCM subscore: limbus and conjunctiva, animals with peripheral vasodilatation", "setting": "ocular surface; 0.1% BAK (n=6)", "value": "three"},
      {"measurement": "IVCM subscore: basal epithelium", "setting": "ocular surface; 4 groups (vehicle, 0.01%, 0.05%, 0.1% BAK)", "value": "unchanged"},
      {"measurement": "IVCM subscore: anterior stroma", "setting": "ocular surface; BAK 0.1% group", "value": "trend for hyperplasia of the subbasal nerve plexi"},
      {"measurement": "IVCM: posterior stroma and endothelium toxicity", "setting": "ocular surface; all BAK concentrations", "value": "no toxicity was found"},
      {"measurement": "IVCM subscore: superficial epithelium", "setting": "ocular surface; all the animals", "value": "slight epithelial swelling"},
      {"measurement": "overall IVCM score (ocular surface toxicity)", "setting": "ocular surface; vehicle, 0.01%, 0.05% and 0.1% BAK groups, 30 days after first BAK administration, Kruskal Wallis test, p>0.05", "value": "No significant difference; also recorded: No statistical difference"},
      {"measurement": "anterior eye abnormality / ocular surface pathological changes", "setting": "ocular surface; whatever the BAK concentration", "value": "Neither anterior eye abnormality nor ocular surface pathological changes were found"}
    ]}
  ]
}
